# Measurements: patent US20230366023A1, “METHODS AND COMPOSITIONS FOR BIOLUMINESCENCE-BASED SEQUENCING” (BGI Shenzhen Co., Ltd., priority 2020, published 2023)
# Entries after “also recorded” stand apart in the source; their conditions may differ.
# Assays:
# Nluc [1] = biological target: T1, Nluc (Oplophorus gracilirostris, UniProt Q9GV45, A31E/A60N/A81I/F95D/I117V/K70R/L54V/L99Q/M102K/N193R/P142E/Q151K/Q38R/Q45L/V71I/Y165I); experiment: Selective deactivation by DTT (FIG. 18A); format: biochemical
# T1 construct: purchased Prolume Inc
# From the text: (§1) Selective deactivation agents that are suitable for the invention include, but not limited to, Dithiothreitol (DTT), beta-mercaptoethylamine, tris-carboxyethylphosphine (TCEP). The suitable concentrations of the agent (e.g., DTT) for selectively deactivating the first luciferease may range from 0.001M to 2M, e.g., from 0.01M to 0.5M, from 0.05M to 1M, 0.07M to 0.5M, or about 0.1M.
# Gluc [2] = experiment: Selective deactivation by DTT (FIG. 18B); format: biochemical, Gaussia princeps
# Procedure: as §1
# In each cycle a mixture of NLRTs were incubated with the DNA template to be sequenced in the presence of a DNA polymerase. These NLRTs include 7-deaza-7-biotin-linker-3′-azidomethyl-dATP, 5-biotin-linker-3′-azidomethyl-dTTP, 5-digoxin-linker-3′-azidomethyl-dTTP, 5-digoxin-linker-3′-azidomethyl-dCTP, and 3′-azidomethyl-dGTP. Streptavidin-conjugated Gluc (recognizing biotin-labeled nucleotides A and T) was added to the sequencing flow cell followed by adding substrate CTZ. Bioluminesnce signals from the cleavage of CTZ by the Gluc was collected. […] Subsequently, Nluc-conjugated anti-Digoxin antibody was added to the flow cell to bind the Digoxin-labeled nucleotides (T and C). No signals for G were detected as expected.
# [3] = On-board stability of substrates in reaction buffer (FIG. 5); format: physicochemical; conditions: room temperature 24 hours in reaction buffer, compared with fresh condition
# Procedure: The term “on-board stability” refers to the stability of […] in reaction buffer under the room temperature for 24 hours.
# To develop the substrate reaction buffer into a robust reagent kit for the bioluminescence-based sequencing platform, both on-board stability and long term shelf life have been evaluated. […] We evaluated the room temperature stability for 24 hours (referred as on-board stability) for both CTZ and f-CTZ in the reaction buffer formulation listed above.
# Solubility of substrates = format: physicochemical
# Procedure: An optimal organic solvent as substrate stock buffer was needed to obtain good solubility and good stability. Different organic solvents and mixes were tested, such as ethanol, propylene glycol, methonal, DMSO, and mixes of these solvents at different ratios.
# [4] = Long-term shelf life of substrates in reaction buffer (FIG. 6); format: physicochemical; conditions: 300 uM in reaction buffer, −20° C.
# Procedure: Long-term shelf life (long-term stability) was also evaluated for the substrate reaction buffer formulation. 300 uM substrate was diluted in the reaction buffer and stored at −20° C. One aliquot was thaw and tested against the fresh luciferase. Data at each time point was the relative signal intensity ratio compared to a fresh luciferase/substrate pair.
# Gluc [5] = experiment: Luciferase signal after incubation with SMCC linker or iodoacetamide (FIG. 10B); format: biochemical, Gaussia princeps
# Procedure: (§2) We investigated the detailed luciferase structures to find the reason for the signal drop. […] To confirm this hypothesis, lodoacetamide was used to incubate with both Gluc and Nluc. Lodoacetamide can bind covalently to the thiol group of cysteine so the protein cannot form disulfide bonds, as illustrated in FIG. 10A. […] This was the reason why there is signal loss after incubating the SMCC with Nluc/Gluc which leads to low signal intensity for the final antibody conjugates.
# Gluc [6] = experiment: Signal and thermostability after Traut's modification (FIG. 11C, 11D); format: biochemical, Gaussia princeps
# Procedure: (§3) Other conjugation methods were also attempted to avoid the side reactions from SMCC. […] After purification of each reaction, the luciferase after Traut's treatment and the antibody after SMCC treatment were mixed together to react through the —SH group on the luciferase and maleimide on the SMCC group on antibody.
# Beside signal evaluation, stability study had also been investigated. […] For Nluc, Traut's modification (1:1 ratio) helps to improve stability and signal for about 30% at 50° C.
# Nluc [7] = biological target: T1, Nluc; experiment: as above; format: biochemical
# From the text: as §3
# Beside signal evaluation, stability study had also been investigated. […]
# Nluc mutant = biological target: T2, Nluc mutant (Oplophorus gracilirostris, UniProt Q9GV45, A31E/A60N/A81I/F95D/I117V/K70R/L54V/L99Q/M102K/N193R/P142E/Q151K/Q38R/Q45L/V71I/Y165I); experiment: Screening of CTZ analogs as substrate (FIG. 4); format: biochemical; conditions: with Nluc mutant
# T2 construct: purchased Prolume Inc
# Nluc [8] = biological target: T1, Nluc; experiment: Luciferase signal after incubation with SMCC linker or iodoacetamide (FIG. 10B); format: biochemical; conditions: Nluc:iodoacetamide 1:10 ratio at RT for 30 min
# Procedure: as §2
# [9] = Stability of luciferases in cells (Table 1); format: cell-based
# [10] = relative; each luciferase with the substrate listed in Table 1
# From the text: Preferably the luciferase is relatively small (e.g., less than 30 KDa) so that they can be readily engineered, e.g., be coupled to or fused to an affinity reagent disclosed herein. […] Other non-limiting examples of luciferases that can be used include Nanoluc (Promega) and NanoKaz (NanoLight Technology), which also comprise a sequence of SEQ ID NO: 2.
# [11] = Cross-substrate reactivity of Nluc with the Gluc substrate (FIG. 3); format: biochemical
# Procedure: In some embodiments, the luciferase is incubated with the substrate for a sufficient amount of time to allow the development of the signal before detection. The step of signal development may last between 5 to 30 minutes, for example, about 10 minutes.
# [12] = Side-by-side signal intensity comparison of commercial luciferases (FIG. 2); format: biochemical; conditions: integrated signal intensity from the first 10 sec
# From the text: However, it was still multiple fold intensity higher than the rest of the counterparts. […] The integrated signal intensity from the first 10 sec was obtained from each luciferase/substrate pair to have the comparison.
molecule,measurement,setting,value
"O[C@H](CS)[C@H](O)CS (racemic) [DTT, Dithiothreitol]",signal change after DTT treatment,Nluc [1],did not impair the activity; also recorded: no significant changes
same,deactivation in sequencing flow cell,Gluc [2]; 100 mM DTT,deactivated Gluc
same,signal reduction after DTT treatment,Gluc [2]; Gluc,more than 95%
"Oc1ccc(Cc2nc3c(Cc4ccccc4)nc(-c4ccc(O)cc4)cn3c2O)cc1 [CTZ, coeleterazine]",on-board stability,[3],no significant difference; also recorded: not significantly different
same,water solubility,Solubility of substrates,not water-soluble
same,long-term stability (relative signal intensity versus fresh luciferase/substrate pair),"[4]; Gluc/CTZ, 6 months",no significant signal drop
O=C(ON1C(=O)CCC1=O)C1CCC(CN2C(=O)C=CC2=O)CC1 (stereo not shown) [SMCC],signal drop after incubating with SMCC linker,Gluc [5]; Gluc,15%-30%
"N=C1CCCS1 [Traut's reagent, 2-iminothiolane]",signal increase after Traut's modification,Gluc [6]; 1:1 molar ratio gives the highest signal,60%
same,thermostability after Traut's modification,Gluc [6]; 50° C. or 70° C. for 1 hour,worse stability
same,thermostability after Traut's modification,"Nluc [7]; Nluc modified or unmodified, 70° C. for 1 hour",cannot survive 70 °C
same,signal increase after Traut's modification (in words),"Nluc [7]; Nluc, 1:1 molar ratio gives the highest signal",doubled
"O=c1c(Cc2ccc(F)cc2)nc2c(Cc3ccccc3)[nH]c(-c3ccc(O)cc3)cn1-2 [f-CTZ, fluorinated coeleterazine]",on-board stability,[3],no significant difference; also recorded: not significantly different
same,water solubility,Solubility of substrates,not water-soluble
same,signal intensity among the different CTZ analog structures,Nluc mutant,optimal substrate; also recorded: highest signal intensity
same,long-term stability (relative signal intensity versus fresh luciferase/substrate pair),"[4]; Nluc/f-CTZ, 4 months",no significant signal drop
"NC(=O)CI [lodoacetamide, Iodoacetamide]",signal lost after reacting with iodoacetamide,Nluc [8],lost all signal
same,signal lost after reacting with iodoacetamide,"Gluc [5]; Gluc:iodoacetamide 1:10 ratio at RT for 30 min, fraction of signal",2/3
"firefly: firefly luciferase, substrate D-Luciferin",Stability in cells,[9],0.00694 days
same,Signal intensity,[10],1
"Gaussia: Gaussia luciferase (GLuc), substrate Coelenterazine (protein) MKPTENNEDFNIVAVASNFATTDLDADRGKLPGKKLPLEVLKELEANARKAGCTRGCLICLSHIKCTPKMKKFIPGRCHTYEGDKESAQGGIGEAIVDIPEIPGFKDLEPLEQFIAQVDLCVDCTTGCLKGLANVQCSDLLKKWLPQRCATFASKIQGQVDKIKGAGGDHHHHHH",Stability in cells,[9],10.5 days
same,Signal intensity,[10],160
"Nluc: NanoZac luciferase polypeptide (SEQ ID NO: 2), Prolume Inc. (protein) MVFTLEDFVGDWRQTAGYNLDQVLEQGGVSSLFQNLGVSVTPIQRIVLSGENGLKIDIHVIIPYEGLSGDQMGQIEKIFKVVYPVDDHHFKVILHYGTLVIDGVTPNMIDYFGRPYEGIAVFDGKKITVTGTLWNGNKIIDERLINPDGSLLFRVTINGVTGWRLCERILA",background signal when reacting with the Gluc substrate,[11]; Nluc with CTZ,about 10%
same,cross-substrate reactivity,"[11]; in words, FIG. 3",no significant cross-substrate reactivity
same,signal compared to the Gluc mutant,[12],half
"Nanoluc: Nanoluc luciferase (Promega), substrate Furimazine (protein) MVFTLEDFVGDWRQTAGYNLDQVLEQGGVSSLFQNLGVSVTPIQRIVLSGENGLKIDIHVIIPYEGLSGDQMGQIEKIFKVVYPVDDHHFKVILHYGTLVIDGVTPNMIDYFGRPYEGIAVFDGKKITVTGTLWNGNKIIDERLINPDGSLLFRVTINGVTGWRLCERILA",Stability in cells,[9],7.7 days
same,Signal intensity,[10],80
"NanoKaz: NanoKaz luciferase (NanoLight Technology), substrate Coelenterazine-F (protein) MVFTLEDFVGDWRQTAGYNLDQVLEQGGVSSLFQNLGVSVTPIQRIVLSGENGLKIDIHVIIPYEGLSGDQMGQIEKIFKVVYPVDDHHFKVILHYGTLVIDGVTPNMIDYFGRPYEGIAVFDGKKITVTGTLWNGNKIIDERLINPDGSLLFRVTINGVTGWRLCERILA",Stability in cells,[9],7.7 days
same,Signal intensity,[10],150
